Measured values reported in patent publication US6906205B2, “Spiro and dispiro 1,2,4-trioxolane antimalarials” (Medicines for Malaria Venture MMV, priority 2002, dated 2005).
Converted amounts (≈) assume the structure as drawn.

Legend:
[1] = test system: P. falciparum NF54 strain (sensitive to standard antimalarials); assay: semiautomated microdilution assay, [3H]-hypoxanthine incorporation, NF54 strain; format: cell-based, Plasmodium falciparum; conditions: for IC50 (ng/ml) NF54: NF54 strain, 72 h incubation
In short: (§1)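 Logit regression analysis was used to estimate IC50 values. Parasites were intraerythrocytic forms from asynchronous stock cultures, and compounds were tested by semiautomated microdilution.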

[2] = test system: P. falciparum K1 strain (Thailand resistant to chloroquine); assay: semiautomated microdilution assay, [3H]-hypoxanthine incorporation, K1 strain; format: cell-based, Plasmodium falciparum; conditions: for IC50 (ng/ml) K1: K1 strain, 72 h incubation
In short: as §1

[3] = test system: ANKA strain of P. berghei; assay: single dose STI in vivo screen in infected mice; parameters: species or system Plasmodium berghei; conditions: for Activity (%) 3 mg/kg SSV po / Activity (%) 10 mg/kg SSV po / Activity (%) po / Activity (%) sc / Activity (%) SSVpo: percent reduction in parasitemia day 3 post-infection; for Activity (%) 10 mg/kg SSV po / Survival (days) 10 mg/kg SSV po: single 10 mg/kg po in SSV; for Activity (%) po / Survival (days) po: single 10 mg/kg po in 3% ethanol and 7% Tween 80; for Activity (%) po / Activity (%) sc / Activity (%) SSVpo: mice; for Activity (%) sc / Survival (days) sc: single 10 mg/kg sc in 3% ethanol and 7% Tween 80; for Activity (%) SSVpo: single po dose in standard suspending vehicle (SSV); for Survival (days) po / Survival (days) sc / Survival (days) SSVpo: untreated control 5.6 ± 0.3; for Survival (days) SSVpo: single po dose in SSV
In short: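 Groups of 3-5 Moro SPF or NMRI mice infected with the ANKA strain of P. berghei received a single dose of trioxolane on day one post-infection. The compound was given in 3% ethanol and 7% Tween 80 or in SSV (0.5% w/v CMC, 0.5% v/v benzyl alcohol, 0.4% v/v Tween 80, 0.9% w/v sodium chloride in water). Antimalarial activity was scored as percent reduction in parasitemia on day three and as survival time versus untreated controls. Survival to day 30 counted as cure.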

Compound | IC50 (ng/ml) NF54 [1] | IC50 (ng/ml) K1 [2] | Activity (%) 3 mg/kg SSV po ([3]; single 3 mg/kg po in SSV) [%] | Activity (%) 10 mg/kg SSV po [3] | Survival (days) 10 mg/kg SSV po [3] | Activity (%) po [3] | Activity (%) sc [3] | Activity (%) SSVpo [3] | Survival (days) po [3] | Survival (days) sc [3] | Survival (days) SSVpo [3] [days] | IC50 ([1]; Plasmodium falciparum, NF54, 72 h, read-out: IC50 (ng/ml) NF54) [ng/mL] | IC50 ([2]; Plasmodium falciparum, K1, 72 h, read-out: IC50 (ng/ml) K1) [ng/mL] | Survival (days) 3 mg/kg SSV po ([3]; single 3 mg/kg po in SSV) [days]
NNC(=O)C[C@H]1CC[C@]2(CC1)OO[C@]1(O2)C2CC3CC(C2)CC1C3 [OZ340] | 2.9 ng/mL (≈ 8.62 nM) | 4.9 ng/mL (≈ 14.6 nM) | 36 | 93% | 9.2 days |  |  |  |  |  |  |  |  | 
N=C(N)NC[C@H]1CC[C@]2(CC1)OOC1(O2)C2CC3CC(C2)CC1C3 (stereo partly shown) [OZ237] | 7.1 ng/mL (≈ 21.2 nM) | 5.7 ng/mL (≈ 17 nM) |  |  |  | 5% | 52% | 9% | 6.0 days | 6.7 days | 6.0 |  |  | 
CC(C)C1CCC2(CC1)OOC1(O2)C2CC3CC(C2)CC1C3 (stereo not shown) [OZ40] | 2.0 ng/mL (≈ 6.53 nM) | 1.4 ng/mL (≈ 4.57 nM) |  |  |  | 99% | 99.8% |  | 7.3 days | 9.0 days |  |  |  | 
CC(=O)OC1(c2ccc(F)cc2)CCC2(CC1)OOC1(O2)C2CC3CC(C2)CC1C3 (stereo not shown) [OZ69] | 1.4 ng/mL (≈ 3.36 nM) | 1.6 ng/mL (≈ 3.84 nM) |  |  |  | 56% | 40% |  | 6.3/NA/6.3 days | 6.3/NA/6.3 days |  |  |  | 
N=C(N)N1CCC2(CC1)OOC1(O2)C2CC3CC(C2)CC1C3 (stereo not shown) [OZ191] | > 10 ng/mL | 6.0 ng/mL (≈ 19.5 nM) |  |  |  | 7% | 17% | 5% | 5.7 days | 6.0 days | 5.7 |  |  | 
O=C(C[C@H]1CC[C@]2(CC1)OO[C@]1(O2)C2CC3CC(C2)CC1C3)N1CCC(O)CC1 [OZ297] | 0.76 ng/mL (≈ 1.87 nM) | 0.49 ng/mL (≈ 1.21 nM) | 83 |  | 9.8 days |  |  |  |  |  |  |  |  | 
CC1(O)CCC2(CC1)OOC1(O2)C2CC3CC(C2)CC1C3 (stereo not shown) [OZ90] |  |  |  |  |  | 89% | 99% | 95% | 7.0 days | 8.0 days | 7.0 | 0.84 (≈ 2.85 nM) | 0.44 (≈ 1.49 nM) | 
c1ccc2c(c1)OCCC21OOC2(O1)C1CC3CC(C1)CC2C3 (stereo not shown) [OZ134] | 1.1 ng/mL (≈ 3.5 nM) | 0.88 ng/mL (≈ 2.8 nM) |  |  |  | 72% | 99.95% | 27% | 6.3 days | 15.3 days | 6.0 |  |  | 
O=C(C[C@H]1CC[C@]2(CC1)OO[C@]1(O2)C2CC3CC(C2)CC1C3)Nc1nnn[nH]1 [OZ278] | 39 ng/mL (≈ 100 nM) | 23 ng/mL (≈ 59.1 nM) |  | 56/ND % | 7.3/ND days |  |  |  |  |  |  |  |  | 
O=C(NC[C@H]1CC[C@]2(CC1)OOC1(O2)C2CC3CC(C2)CC1C3)c1cc[n+]([O-])cc1 (stereo partly shown) [OZ264] | 1.5 ng/mL (≈ 3.62 nM) | 1.2 ng/mL (≈ 2.9 nM) |  |  |  | 99.61% | 99.97% | 99.92% | 11.0 days | 13.7 days | 10.3 |  |  | 
COC(=O)c1ccc(C2(c3ccc(C(=O)OC)c(C(=O)OC)c3)OOC3(O2)C2CC4CC(C2)CC3C4)cc1C(=O)OC (stereo not shown) [OZ106] | 1.7 ng/mL (≈ 2.93 nM) | 2.2 ng/mL (≈ 3.79 nM) |  |  |  | 0/0/0% | 0/0/0% | 0/0/0% | 5.3 days | 5.3 days | 5.0 |  |  | 
O=C(O)C1(c2ccccc2)CCC2(CC1)OOC1(O2)C2CC3CC(C2)CC1C3 (stereo not shown) [OZ99] | 27 ng/mL (≈ 70.2 nM) | 77 ng/mL (≈ 200 nM) |  |  |  | 30% | 36% | 40% | 6.3 days | 6.3 days | 5.7 |  |  | 
[N-]=[N+]=NCC[C@H]1CC[C@]2(CC1)OOC1(O2)C2CC3CC(C2)CC1C3 (stereo partly shown) [OZ228] | 2.1 ng/mL (≈ 6.3 nM) | 2.0 ng/mL (≈ 6 nM) |  |  |  | 99.94% | 99.94% | 28% | 10.3 days | 14.0 days | 6.0 |  |  | 
O=C1OC2(CCC3(CC2)OOC2(O3)C3CC4CC(C3)CC2C4)c2ccccc21 (stereo not shown) [OZ149] | 8.8 ng/mL (≈ 23 nM) | 8.0 ng/mL (≈ 20.9 nM) |  |  |  | 64% | 87% | 3% | 7.7 days | 14.3 days | 6.0 |  |  | 
O=C1CC2CC(C1)CC1(C2)OOC2(O1)C1CC3CC(C1)CC2C3 (stereo not shown) [OZ13] | 0.50 ng/mL (≈ 1.57 nM) | 0.40 ng/mL (≈ 1.26 nM) |  |  |  | 56% | 99.7% |  | 6.7 days | 9.7 days |  |  |  | 
O=C(O)CCC(=O)N1CCC2(CC1)OOC1(O2)C2CC3CC(C2)CC1C3 (stereo not shown) [OZ58] | 7.2 ng/mL (≈ 19.7 nM) | 7.1 ng/mL (≈ 19.4 nM) |  |  |  | 39% | 52% |  | 6.0 days | 6.3 days |  |  |  | 
NOC[C@H]1CC[C@]2(CC1)OO[C@]1(O2)C2CC3CC(C2)CC1C3 [OZ334] | 20 ng/mL (≈ 64.6 nM) | 28 ng/mL (≈ 90.5 nM) | 13 | 47% | 6.8 days |  |  |  |  |  |  |  |  | 
O=S(=O)(Cc1ccccc1)N1CCC2(CC1)OOC1(O2)C2CC3CC(C2)CC1C3 (stereo not shown) [OZ131] | 4.1 ng/mL (≈ 9.77 nM) | 1.7 ng/mL (≈ 4.05 nM) |  |  |  | 21% | 90% | 41% | 5.7 days | 8.0 days | 6.0 |  |  | 
C1C2CC3CC1CC(C2)[C@]31OO[C@@]2(CC[C@H](Cc3nnn[nH]3)CC2)O1 [OZ363] | 55 ng/mL (≈ 159 nM) | 46 ng/mL (≈ 133 nM) | 10 | 40% | 6.8 days |  |  |  |  |  |  |  |  | 6.0
O=C1CNC(=O)N1C[C@H]1CC[C@]2(CC1)OOC1(O2)C2CC3CC(C2)CC1C3 (stereo partly shown) [OZ206] | 2.7 ng/mL (≈ 7.17 nM) | 1.0 ng/mL (≈ 2.66 nM) |  |  |  | 93% | 91% | 92% | 8.0 days | 9.7 days | 8.7 |  |  | 
C(CNC1CCC2(CC1)OOC1(O2)C2CC3CC(C2)CC1C3)CN1CCOCC1 (stereo not shown) [OZ161] | 0.50 ng/mL (≈ 1.23 nM) | 0.40 ng/mL (≈ 0.984 nM) |  |  |  | 59% | 99.96% | 46% | 7.0 days | 12.7 days | 6.7 |  |  | 
N#CC1(c2ccccc2)CCC2(CC1)OOC1(O2)C2CC3CC(C2)CC1C3 (stereo not shown) [OZ63] | 1.6/1.6 ng/ml | 1.6/1.6 ng/ml |  |  |  | 99.62% | 99.91% | 65% | 7.3 days | 9.3 days | 6.0 |  |  | 
C1C2CC3CC1CC(C2)C31OO[C@]2(CC[C@@H](CNC3CC3)CC2)O1 (stereo partly shown) [OZ253] | 0.45 ng/mL (≈ 1.35 nM) | 0.56 ng/mL (≈ 1.68 nM) |  |  |  | 75% | 99.82% | 59% | 7.0 days | 9.3 days | 6.7 |  |  | 
O=C(CN1C(=O)c2ccccc2C1=O)N1CCC2(CC1)OOC1(O2)C2CC3CC(C2)CC1C3 (stereo not shown) [OZ93] | 0.92 ng/mL (≈ 2.03 nM) | 3.3 ng/mL (≈ 7.29 nM) |  |  |  | 57% | 100% | 3% | 6.7 days | 13.3 days | 6.0 |  |  | 
CC(C)(N)CNC[C@H]1CC[C@]2(CC1)OOC1(O2)C2CC3CC(C2)CC1C3 (stereo partly shown) [OZ287] | 0.83 ng/mL (≈ 2.28 nM) | 0.49 ng/mL (≈ 1.34 nM) | 68 | 95% | 8.3 days |  |  |  |  |  |  |  |  | 
CN(C)S(=O)(=O)N1CCC2(CC1)OOC1(O2)C2CC3CC(C2)CC1C3 (stereo not shown) [OZ190] | 1.0 ng/mL (≈ 2.68 nM) | 0.16 ng/mL (≈ 0.43 nM) |  |  |  | 98% | 2% | 78% | 8.7 days | 5.7 days | 7.7 |  |  | 
